Data as given in patent publication US12173088B2, “Anti-microbial peptides” (priority 2018, dated 2024).
In brackets after ≈: the same amount, converted by molar mass. Where two headings read alike, the source gives them in different places. Peptide text beside a SMILES is read from it.

Tests used:
S. aureus USA300 = test: microbe, parasite or virus in culture; assay type: cell-based, Staphylococcus aureus
Excerpt: The bacterial strains used include the Gram-positive strains Staphylococcus aureus USA300 LAC, S. epidermidis 1457, and Bacillus subtilis 168, as well as the Gram-negative isolates Escherichia coli K12 and Acinetobacter baumannii B2367-12. Additional, drug resistance strains include Gram-positive Enterococcus faecium V286-17 (VRE) and S. aureus M838-17 (MRSA) and Gram-negative E. coli E423-17, E. coli E416-17 (ampC), and P. aeruginosa E411-17. Bacteria were cultivated in tryptic soy broth (TSB) (BD Bioscience, MD).
(§1) The antibacterial activity of peptides was evaluated using a standard broth microdilution protocol with minor modifications as described (Mishra, et al. (2012) J. Am. Chem. Soc., 134:12426-12429). In brief, logarithmic phase bacterial cultures (i.e., optical density at 600 nm≈0.5) were diluted to OD600 0.001 and partitioned into a 96-well polystyrene microplate at 90 μL per well. After treatment with 10 μL of peptide solutions two fold diluted to various concentrations, microplates were incubated at 37° C. overnight and read on a ChroMate® 4300 Microplate Reader at 630 nm (GMI, Ramsey, MN). […] To study the influence of medium conditions on the antimicrobial activity of peptides against S. aureus USA300, up to 200 mM sodium chloride (NaCl), 2 mM of calcium chloride, 5-10% of human serum, mouse plasma, fluid, or supernatants of tissue homogenates were included into the assays.
(§2) The bacterial strains used include the Gram-positive bacteria methicillin-resistant Staphylococcus aureus USA300, Enterococcus faecium V286-17 (VRE), S. aureus M838-17 (MRSA) and Gram-negative bacteria E. coli E423-17, E416-7 (ampC), P. aeruginosa E411-17, PA01, K. pneumoniae E406-17, ATCC13883, and A. baumannii B26-16. Bacteria were cultivated in tryptic soy broth (TSB) from BD Bioscience.
(§3) The antibacterial activity of peptides was evaluated using a standard broth microdilution protocol with minor modifications (Mishra, et al. (2017) Acta Biomater., 49:316-328). In brief, logarithmic phase bacterial cultures (i.e., optical density at 600 nm≈0.5) were diluted to 0.001 OD and aliquoted 90 μL per well into a 96-well polystyrene microplate. Added 10 μL peptides per well with various concentrations, plates were incubated at 37° C., overnight. Post incubation the plates are read at 630 nm using a ChroMate® Microplate Reader (GMI). […] To study the influence of medium conditions on the antimicrobial activity of peptides against S. aureus USA300 at different pHs (6.8, 7.2, and 8.0), 150 mM sodium chloride (NaCl), 5-10% of human serum, mouse plasma, and peritoneal fluid were included into the assays.

P. aeruginosa PAO1 = assay type: cell-based, Pseudomonas aeruginosa
Experimental: as §1, §2, §3

E. coli ATCC 25922 = assay type: cell-based, Escherichia coli
Experimental: as §1, §3

[1] = tested on: human red blood cells (hRBCs); test: Hemolytic assay; assay type: cell-based
Experimental: Briefly, human red blood cells (hRBCs) were washed three times with phosphate buffer saline (PBS) and diluted to a 2% solution (v/v). After peptide treatment, incubation at 37° C. for one hour, and centrifugation at 5000 rpm for 10 minutes, aliquots of the supernatant were carefully transferred to a fresh 96-well microplate. The amount of hemoglobin released was measured at 545 nm. The percent lysis was calculated by assuming 100% release when human blood cells were treated with 2% Triton™ X-100, and 0% release when incubated with PBS buffer. The peptide concentration that caused 50% lysis of hRBCs is defined as HL50. The cell selectivity index (CSI) was calculated as the ratio between HL50 and MIC of the corresponding peptide against a select pathogenic species.
Hemolytic assays of peptides were performed as described (Mishra, et al. (2017) Acta Biomater., 49:316-328). Briefly, human red blood cells (hRBCs) obtained from UNMC Blood Bank. The blood washed 3× with isotonic saline (0.9% NaCl) and diluted to 2% blood cells (v/v). Peptide horine and verine at various concentrations were added into the 2% blood cells and incubated at 37° C. for 1 hour. Post incubation the plates were spun at 2000 rpm for 10 minutes, aliquots of the supernatant were carefully transferred to a fresh 96-well microplate. The amount of cells lysed is proportional to the hemoglobin released and measured at 545 nm using a ChroMate® microplate reader. The percent lysis was calculated by assuming 100% release when human blood cells were treated with 1% Triton™ X-100, and 0% release when incubated with PBS. The peptide concentration that caused 50% lysis of hRBCs is defined as HL50.

K. pneumoniae ATCC 13883 = assay type: cell-based, Klebsiella pneumoniae; conditions: ATCC 13883
Experimental: as §1, §2, §3

MIC S. aureus USA 300 (S. aureus USA300; USA300) [µM] | MIC P. aeruginosa PAO1 (P. aeruginosa PAO1; PAO1) [µM] | MIC E. coli ATCC 25922 (E. coli ATCC 25922; ATCC 25922) [µM] | MIC K. pneumoniae ATCC 13883 (K. pneumoniae ATCC 13883) [µM] | MIC K. pneumonia ATCC 13883 (K. pneumoniae ATCC 13883) [µM] | SMILES | HL50 [1] [µM] | also measured
12.5 (≈ 15.7 µg/mL) | >25 | 12.5 (≈ 15.7 µg/mL) | – | – | CC(C)C[C@H](NC(=O)[C@H](CC(C)C)NC(=O)[C@H](CCCCN)NC(=O)CNC(=O)[C@H](C)NC(=O)[C@H](C)NC(=O)[C@H](CCCCN)NC(=O)[C@H](CC(C)C)NC(=O)[C@H](C)NC(=O)[C@H](CO)NC(=O)[C@H](CC(C)C)NC(=O)[C@H](CC(C)C)NC(=O)CN)C(N)=O [DFT521, GLLSALKAAGKLL] (H-GLLSALKAAGKLL-NH2; N-terminus assumed) | >50 | MIC against S. aureus (S. aureus USA300; USA300): 12.5 to 25 µM
>25 | >25 | >25 | – | – | CC(C)C[C@H](NC(=O)[C@H](CC(C)C)NC(=O)[C@H](CCCCN)NC(=O)CNC(=O)[C@H](C)NC(=O)[C@H](C)NC(=O)[C@H](CCCCN)NC(=O)[C@H](C)NC(=O)[C@H](C)NC(=O)[C@H](CO)NC(=O)[C@H](CC(C)C)NC(=O)[C@H](CC(C)C)NC(=O)CN)C(N)=O [DFT522, GLLSAAKAAGKLL] (H-GLLSAAKAAGKLL-NH2; N-terminus assumed) | 50 | Antimicrobial activity (S. aureus USA300; at 25 μM): inactive

Further lines, the compound ahead of its results:

SMILES | MIC S. aureus USA 300 (S. aureus USA300; USA300) [µM] | MIC P. aeruginosa PAO1 (P. aeruginosa PAO1; PAO1) [µM] | MIC E. coli ATCC 25922 (E. coli ATCC 25922; ATCC 25922) [µM] | MIC K. pneumoniae ATCC 13883 (K. pneumoniae ATCC 13883) [µM] | MIC K. pneumonia ATCC 13883 (K. pneumoniae ATCC 13883) [µM] | HL50 [1] [µM] | also measured
CC(C)C[C@H](NC(=O)[C@H](CC(C)C)NC(=O)[C@H](CCCCN)NC(=O)CNC(=O)[C@H](CC(C)C)NC(=O)[C@H](CC(C)C)NC(=O)[C@H](CO)NC(=O)[C@H](CC(C)C)NC(=O)[C@H](CO)NC(=O)[C@H](CC(C)C)NC(=O)[C@H](CC(C)C)NC(=O)CN)C(N)=O [DFT523, GLLSL-SLLGKLL] (H-GLLSLSLLGKLL-NH2; N-terminus and C-terminus assumed) | – | – | – | – | – | – | MIC against S. aureus (S. aureus USA300; Example 1): 12.5 to 25 µM; MIC S. aureus USA 300 (S. aureus USA300; Table 3, quantified by UV): 12.5 µM (≈ 15.3 µg/mL); MIC P. aeruginosa PAO1 (P. aeruginosa PAO1; Table 3, quantified by UV): >25 µM; MIC against E. coli (E. coli ATCC 25922): 12.5 to 25 µM; MIC E. coli ATCC 25922 (E. coli ATCC 25922; Table 3, quantified by UV): 25 µM (≈ 30.6 µg/mL); HL50 ([1]; Table 3, hRBCs 2% v/v): >50 µM
CC[C@H](C)[C@H](NC(=O)[C@H](CCCCN)NC(=O)[C@H](CCCNC(=N)N)NC(=O)[C@H](CC(C)C)NC(=O)[C@H](Cc1c[nH]c2ccccc12)NC(=O)[C@@H](N)Cc1c[nH]c2ccccc12)C(=O)N[C@@H](Cc1c[nH]c2ccccc12)C(=O)N[C@@H](Cc1c[nH]c2ccccc12)C(=O)O [WW292, WWLRKIWW] (H-WWLRKIWW-OH; N-terminus and C-terminus assumed) | 6.2 (≈ 7.9 µg/mL) | – | 25 (≈ 31.8 µg/mL) | >50 | – | – | –
CC[C@H](C)[C@H](NC(=O)[C@H](CCCCN)NC(=O)[C@H](CCCNC(=N)N)NC(=O)[C@H](CC(C)C)NC(=O)[C@@H](N)Cc1c[nH]c2ccccc12)C(=O)N[C@@H](Cc1c[nH]c2ccccc12)C(=O)N[C@@H](Cc1c[nH]c2ccccc12)C(=O)N[C@@H](Cc1c[nH]c2ccccc12)C(=O)O [WW293, WLRKIWWW] (H-WLRKIWWW-OH; N-terminus and C-terminus assumed) | 3.1 to 6.2 | – | 12.5 to 25 | 25 (≈ 31.8 µg/mL) | – | – | –
CC[C@H](C)[C@H](NC(=O)[C@H](CCCCN)NC(=O)[C@H](CCCNC(=N)N)NC(=O)[C@@H](N)CC(C)C)C(=O)N[C@@H](Cc1c[nH]c2ccccc12)C(=O)N[C@@H](Cc1c[nH]c2ccccc12)C(=O)N[C@@H](Cc1c[nH]c2ccccc12)C(=O)N[C@@H](Cc1c[nH]c2ccccc12)C(=O)O [WW294, LRKIWWWW] (H-LRKIWWWW-OH; N-terminus and C-terminus assumed) | 3.1 to 6.2 | – | 12.5 (≈ 15.9 µg/mL) | 6.2 to 12.5 | – | – | –
CC[C@H](C)[C@H](NC(=O)[C@@H](N)CCCCN)C(=O)N[C@@H](Cc1c[nH]c2ccccc12)C(=O)N[C@@H](Cc1c[nH]c2ccccc12)C(=O)N[C@@H](Cc1c[nH]c2ccccc12)C(=O)N[C@@H](Cc1c[nH]c2ccccc12)C(=O)N[C@@H](CC(C)C)C(=O)N[C@@H](CCCNC(=N)N)C(=O)O [WW296, KIWWWWLR] (H-KIWWWWLR-OH; N-terminus and C-terminus assumed) | 3.1 (≈ 3.95 µg/mL) | – | 6.2 to 12.5 | 12.5 (≈ 15.9 µg/mL) | – | – | –
CC[C@H](C)[C@H](NC(=O)[C@H](CCCCN)NC(=O)[C@H](CCCNC(=N)N)NC(=O)[C@H](CC(C)C)NC(=O)[C@H](Cc1c[nH]c2ccccc12)NC(=O)[C@H](Cc1c[nH]c2ccccc12)NC(=O)[C@H](Cc1c[nH]c2ccccc12)NC(=O)[C@@H](N)Cc1c[nH]c2ccccc12)C(=O)O [WW298, WWWWLRKI] (H-WWWWLRKI-OH; N-terminus and C-terminus assumed) | 1.5 to 3.1 | – | 12.5 (≈ 15.9 µg/mL) | 6.2 to 12.5 | – | – | –
CC[C@H](C)[C@H](NC(=O)[C@H](CCCNC(=N)N)NC(=O)[C@H](CCCNC(=N)N)NC(=O)[C@H](CC(C)C)NC(=O)[C@H](Cc1c[nH]c2ccccc12)NC(=O)[C@H](Cc1c[nH]c2ccccc12)NC(=O)[C@@H](N)Cc1c[nH]c2ccccc12)C(=O)N[C@@H](Cc1c[nH]c2ccccc12)C(N)=O [WW299, WWWLRRIW] (H-WWWLRRIW-NH2; N-terminus and C-terminus assumed) | – | >50 | – | – | 25 (≈ 32.5 µg/mL) | 35 | –
CC[C@H](C)[C@H](NC(=O)[C@H](CCCNC(=N)N)NC(=O)[C@H](CCCNC(=N)N)NC(=O)[C@H](CC(C)C)NC(=O)[C@H](Cc1c[nH]c2ccccc12)NC(=O)[C@H](Cc1c[nH]c2ccccc12)NC(=O)[C@@H](N)CCCNC(=N)N)C(=O)N[C@@H](Cc1c[nH]c2ccccc12)C(N)=O [WW300, RWWLRRIW] (H-RWWLRRIW-NH2; N-terminus and C-terminus assumed) | – | 12.5 (≈ 15.9 µg/mL) | – | – | >50 | >200 | –
CC[C@H](C)[C@H](NC(=O)[C@H](CCCNC(=N)N)NC(=O)[C@H](CCCNC(=N)N)NC(=O)[C@H](CC(C)C)NC(=O)[C@H](Cc1c[nH]c2ccccc12)NC(=O)[C@H](CCCNC(=N)N)NC(=O)[C@@H](N)Cc1c[nH]c2ccccc12)C(=O)N[C@@H](Cc1c[nH]c2ccccc12)C(N)=O [WW301, WRWLRRIW] (H-WRWLRRIW-NH2; N-terminus and C-terminus assumed) | – | 6.2 (≈ 7.88 µg/mL) | – | – | 25 (≈ 31.8 µg/mL) | 100 | –
CC[C@H](C)[C@H](NC(=O)[C@H](CCCNC(=N)N)NC(=O)[C@H](CCCNC(=N)N)NC(=O)[C@H](CC(C)C)NC(=O)[C@H](CCCNC(=N)N)NC(=O)[C@H](Cc1c[nH]c2ccccc12)NC(=O)[C@@H](N)Cc1c[nH]c2ccccc12)C(=O)N[C@@H](Cc1c[nH]c2ccccc12)C(N)=O [WW302, WWRLRRIW] (H-WWRLRRIW-NH2; N-terminus and C-terminus assumed) | – | 12.5 (≈ 15.9 µg/mL) | – | – | >25 | >200 | –
